Data as given in patent US4150029A, “3-Aryl 2-oxazolidinones, their process of preparation and their therapeutical application” (Delalande S.A., priority 1976, dated 1979).
Read-outs that look alike come from different tables or passages of the source.

Assays:
[1] = tested on: pontogeniculo-occipital points (P.G.O.) caused by reserpine; assay: Test C: diminution in density of reserpine-induced pontogeniculo-occipital (P.G.O.) points in the cat; format: in vivo; details: Felis catus, po, reserpine 0.5 mg/kg, read-out: Test C 50 DE
Description: Diminution in the density of pontogeniculo-occipital points (P.G.O.) caused by injecting a cat with 0.5 mg/kg of reserpine, according to the mode of operation described by COSTON A. and GOURET C. in J. Pharmacol. (PARIS), (1976), 7, 409.

[2] = tested on: generalised trembling caused by an intraperitoneal injection of dl-5-hydroxytryptophane; assay: Test A: potentiation of generalised trembling caused by dl-5-hydroxytryptophane in the mouse; format: in vivo; details: po, read-out: Test A 50 DE
Description: Potentiation in a mouse of generalised trembling caused by an intraperitoneal injection (200 mg/kg) of dl-5-hydroxytryptophane, according to the mode of operation described by GOURET C. and RAYNAUD G. in the J. Pharmacol. (PARIS), (1974), 5, 231.

[3] = Acute toxicity in mice; details: mouse, in vivo, po; for LD50: acute toxicity, read-out: 50 DL
[4] = tested on: ptosis observed one hour after an intravenous injection of reserpine; assay: Test B: antagonism of reserpine-induced ptosis in the mouse; format: in vivo; details: po, 1 h, p.o., reserpine 2 mg/kg i.v., read-out: Test B 50 DE
Description: Antagonism in relation to ptosis observed one hour after an intravenous injection (2 mg/kg) of reserpine was given to a mouse, according to the mode of operation described by GOURET C. and THOMAS J. in J. Pharmacol. (PARIS), (1973), 4, 401.

[5] = mouse, p.o., dl-5-hydroxytryptophane 200 mg/kg i.p.

Row | SMILES | ED50 [1] [mg/kg] | ED50 [2, 5] [mg/kg] | LD50 [3] [mg/kg] | ED50 [4] [mg/kg] | ED50 ([2]; Mus musculus) [mg/kg] | mortality ([3]; dose administered 2000 mg/kg/p.o.) [%] | mortality ([3]; dose administered 1000 mg/kg/p.o.) [%]
1 | N#Cc1ccc(N2CC(CO)OC2=O)cc1 (stereo not drawn) [compound 760271] | 11 | 20 | 1050 | 11 |  |  | 
2 | CNC(=O)OCC1CN(c2cccc(C(F)(F)F)c2)C(=O)O1 (stereo not drawn) [compound 740704] | 52 |  |  | 12 | 42 | 0 | 
3 | CCCCOc1ccc(N2CC(CO)OC2=O)cc1 (stereo not drawn) [compound 760304] | 6.1 | 5 | > 2000 | 5 |  |  | 
4 | O=C1OC(CO)CN1c1ccc(OCc2cccc(C(F)(F)F)c2)cc1 (stereo not drawn) [compound 760556] | 14.1 | 5 |  | 3.2 |  |  | 
5 | O=C1OC(CO)CN1c1ccc(N2CCCC2)cc1 (stereo not drawn) [compound 760474] | 14 | 42 |  | 68 |  |  | 
6 | O=C1OC(CO)CN1c1ccc(OCc2cccc(F)c2)cc1 (stereo not drawn) [compound 760453] | 11.6 | 5.5 |  | 7 |  |  | 
7 | N#Cc1ccc(COc2ccc(N3CC(CO)OC3=O)cc2)cc1 (stereo not drawn) [compound 760881] | 29 | 12.5 |  | 5 |  |  | 
8 | O=C1OC(CO)CN1c1ccc(OC2CCCCC2)cc1 (stereo not drawn) [compound 760314] | 12 | 19 |  | 18 |  |  | 
9 | CCCCSc1ccc(N2CC(CO)OC2=O)cc1 (stereo not drawn) [compound 760473] | 11.5 | 41 |  | 22 |  |  | 
10 | CN(Cc1ccccc1)c1ccc(N2CC(CO)OC2=O)cc1 (stereo not drawn) [compound 760375, 5-hydroxymethyl 3-p-N-benzyl N-methylaminophenyl 2-oxazolidinone] | 160 | 39 |  | 28 |  |  | 
11 | CNC(=O)OCC1CN(c2ccc(OCC#N)cc2)C(=O)O1 (stereo not drawn) [compound 760660, 5-N-methylcarbamoyloxymethyl 3-p-cyanomethyloxyphenyl 2-oxazolidinone] | 12.3 |  |  | 31 | > 12.5 |  | 
12 | N#CCOc1ccc(N2CC(CO)OC2=O)cc1 (stereo not drawn) [compound 760651, 5-hydroxymethyl 3-p-cyanomethyloxyphenyl 2-oxazolidinone] | 1.5 | 5.5 |  | 2.5 |  |  | 
13 | C/C=C/COc1ccc(N2CC(CO)OC2=O)cc1 (stereo not drawn) [compound 760827] | 5.2 | 15 |  | 10 |  |  | 
14 | CNc1ccc(N2CC(CO)OC2=O)cc1 (stereo not drawn) [compound 760395, 5-hydroxymethyl 3-p-N-methylaminophenyl 2-oxazolidinone] | 160 | 39 |  | 28 |  |  | 
15 | CNC(=O)OCC1CN(c2ccc(OCC(C)C)cc2)C(=O)O1 (stereo not drawn) [compound 760712] | 35 |  |  | 25 | 48 |  | 
16 | CNC(=O)OCC1CN(c2ccc(OCc3ccc([N+](=O)[O-])cc3)cc2)C(=O)O1 (stereo not drawn) [compound 760676] | 22 |  |  | 6.25 | > 12.5 |  | 
17 | C=C(C)COc1ccc(N2CC(CO)OC2=O)cc1 (stereo not drawn) [compound 760535] | 5.1 | 28 |  | 50 |  |  | 
18 | CCOc1ccc(N2CC(COC(=O)NC)OC2=O)cc1 (stereo not drawn) [compound 760104] | > 50 |  |  | 44 | 48 |  | 
19 | CC(=O)c1ccc(N2CC(CO)OC2=O)cc1 (stereo not drawn) [compound 760670] | 14 | 21 |  | 10 |  |  | 

Row | SMILES | ED50 [1] [mg/kg] | ED50 [2, 5] [mg/kg] | LD50 [3] [mg/kg] | ED50 [4] [mg/kg] | ED50 ([2]; Mus musculus) [mg/kg] | mortality ([3]; dose administered 2000 mg/kg/p.o.) [%] | mortality ([3]; dose administered 1000 mg/kg/p.o.) [%]
20 | O=C1OC(CO)CN1c1cccc(Br)c1 (stereo not drawn) [compound 750710] | 14 | 62 |  | 100 |  |  | 
21 | CCCCCOc1ccc(N2CC(CO)OC2=O)cc1 (stereo not drawn) [compound 760396] | 20 | 12 |  | 1.4 |  |  | 
22 | CCCOc1ccc(N2CC(CO)OC2=O)cc1 (stereo not drawn) [compound 760303] | 6.9 | 9 |  | 14 |  |  | 
23 | O=C1OC(CO)CN1c1ccc(OCc2ccc(Cl)cc2)cc1 (stereo not drawn) [compound 760337] | 120 | 6 |  | 5 |  |  | 
24 | CNC(=O)OCC1CN(c2ccc(OCc3ccc(F)cc3)cc2)C(=O)O1 (stereo not drawn) [compound 760717] | > 50 |  |  | 12.5 | > 12.5 |  | 
25 | Cc1cccc(COc2ccc(N3CC(CO)OC3=O)cc2)c1 (stereo not drawn) [compound 760533] | 51 | 41 |  | 54 |  |  | 
26 | C=CCCOc1ccc(N2CC(CO)OC2=O)cc1 (stereo not drawn) [compound 760536] | 6.3 | 8.6 |  | 15 |  |  | 
27 | CC(=O)COc1ccc(N2CC(CO)OC2=O)cc1 (stereo not drawn) [compound 760652] | 13 | 7.1 |  | 2.8 |  |  | 
28 | C=CCOc1ccc(N2CC(CO)OC2=O)cc1 (stereo not drawn) [compound 760306] | 2.5 | 14 |  | 29 |  |  | 
29 | CC(C)Oc1ccc(N2CC(CO)OC2=O)cc1 (stereo not drawn) [compound 760116] | 15 | 60 |  | 50 |  |  | 
30 | C#CCOc1ccc(N2CC(COC(=O)NC)OC2=O)cc1 (stereo not drawn) [compound 760658] | 13.9 |  |  | 27 | > 12.5 |  | 
31 | CC#CCOc1ccc(N2CC(CO)OC2=O)cc1 (stereo not drawn) [compound 760877] | 5.6 | 25 |  | 25 |  |  | 
32 | C#CCOc1ccc(N2CC(CO)OC2=O)cc1 (stereo not drawn) [compound 760307] | 5 | 8 |  | 14 |  |  | 
33 | CNC(=O)OCC1CN(c2ccc(OCc3ccccc3)cc2)C(=O)O1 (stereo not drawn) [compound 760409] | > 50 |  |  | 7 | 100 |  | 
34 | O=C1OC(CO)CN1c1ccc(OCc2cccc(Cl)c2)cc1 (stereo not drawn) [compound 760548] | 33.5 | 4.4 |  | 3.4 |  |  | 
35 | CC(C)=CCOc1ccc(N2CC(CO)OC2=O)cc1 (stereo not drawn) [compound 760650] | 7.03 | 25.5 |  | 3.4 |  |  | 
36 | Cc1ccc(N2CC(CO)OC2=O)cc1C (stereo not drawn) [compound 750341] | 22 | 100 |  | 41 |  |  | 
37 | O=C1OC(CO)CN1c1cccc([N+](=O)[O-])c1 (stereo not drawn) [compound 740511, 5-hydroxymethyl-3-metanitrophenyl-2 oxazolidinone] | 40 | 55 |  | 17 |  |  | 
38 | O=C1OC(CO)CN1c1ccc(OCc2ccc(Br)cc2)cc1 (stereo not drawn) [compound 760574] | > 50 | 21 |  | 22 |  |  | 

Row | SMILES | ED50 [1] [mg/kg] | ED50 [2, 5] [mg/kg] | LD50 [3] [mg/kg] | ED50 [4] [mg/kg] | ED50 ([2]; Mus musculus) [mg/kg] | mortality ([3]; dose administered 2000 mg/kg/p.o.) [%] | mortality ([3]; dose administered 1000 mg/kg/p.o.) [%]
39 | CC(C)COc1ccc(N2CC(CO)OC2=O)cc1 (stereo not drawn) [compound 760414] | 5.5 | 13 |  | 3 |  |  | 
40 | Cc1ccccc1COc1ccc(N2CC(CO)OC2=O)cc1 (stereo not drawn) [compound 760537] | 37.5 | 35 |  | 17 |  |  | 
41 | CNC(=O)OCC1CN(c2ccc(SC)cc2)C(=O)O1 (stereo not drawn) [compound 760786] | 25.5 |  |  | 40 | > 50 |  | 
42 | CC(C)NC(=O)OCC1CN(c2cccc(C(F)(F)F)c2)C(=O)O1 (stereo not drawn) [compound 740711] |  | 19 |  | 26 |  |  | 0
43 | O=C1OC(CO)CN1c1ccc(SC2CCCCC2)cc1 (stereo not drawn) [compound 760621] | 40 | 100 |  | 42 |  |  | 
44 | CN(C)c1ccc(N2CC(CO)OC2=O)cc1 (stereo not drawn) [compound 760133] | 4.5 | 11 |  | 7.2 |  |  | 
45 | CCCCCCOc1ccc(N2CC(CO)OC2=O)cc1 (stereo not drawn) [compound 760549] | 85 | 26 |  | 11 |  |  | 
46 | CCc1cccc(N2CC(CO)OC2=O)c1 (stereo not drawn) [compound 740512] | 50 | 68 |  | 32 |  |  | 
47 | O=C1OC(CO)CN1c1ccc(OCCc2ccccc2)cc1 (stereo not drawn) [compound 760317] | 45 | 25 |  | 17 |  |  | 
48 | CCCSc1ccc(N2CC(CO)OC2=O)cc1 (stereo not drawn) [compound 760600] | 6.26 | 19 |  | 15.4 |  |  | 
49 | O=C1OC(CO)CN1c1ccc(OCc2ccc([N+](=O)[O-])cc2)cc1 (stereo not drawn) [compound 760622] | 40 | 5.5 |  | 2.1 |  |  | 
50 | CC(C)NC(=O)OCC1CN(c2ccc(OCc3ccccc3)cc2)C(=O)O1 (stereo not drawn) [compound 760723] | > 50 | > 50 |  | 17.5 |  |  | 
51 | CNC(=O)OCC1CN(c2ccc(C(C)=O)cc2)C(=O)O1 (stereo not drawn) [compound 760731] | 17.5 |  |  | 15 | > 25 |  | 
52 | O=C1OC(CO)CN1c1ccc(OCc2ccc(F)cc2)cc1 (stereo not drawn) [compound 760432] | 24 | 3.8 |  | 2 |  |  | 
53 | CNC(=O)OCC1CN(c2ccc(OCc3cccc(Cl)c3)cc2)C(=O)O1 (stereo not drawn) [compound 760729] | 50 |  |  | 23 | > 12.5 |  | 
54 | CCCCOc1ccc(N2CC(COC(=O)NC)OC2=O)cc1 (stereo not drawn) [compound 760662] | 23 |  |  | 17.5 | 48 |  | 
55 | CCSc1ccc(N2CC(CO)OC2=O)cc1 (stereo not drawn) [compound 760466] | 8.25 | 40 |  | 32 |  |  | 
56 | CCN(CC)c1ccc(N2CC(CO)OC2=O)cc1 (stereo not drawn) [compound 760311] | 9 | 27 |  | 32 |  |  | 
